Measured values from patent EP3831399A1, “ANTI-NOROVIRUS AGENT” (DENSO CORPORATION, priority 2018, dated 2020).
Entries after “also recorded” stand apart in the source; their conditions may differ.

Tests used:
Assay type in all cases: cell-based
[1] = test system: feline calicivirus (FCV); assay: Virucidal effect in presence of organic material (BSA); settings: 1,000 µg/ml
Method: • Virus: using feline calicivirus (FCV) as a replacement for norovirus • Used medicine and concentration: 1,000 µg/ml of sodium hypochlorite or coccomyxa sp. KJ strain MGDG preparation • Organic material: using BSA (albumin) 5%
• (1) Feline calicivirus (FCV) was prepared in 2×10^5 PFU/ml. • (2) An MGDG preparation or sodium hypochlorite is prepared at a concentration four times the final assay concentration ([…]). • (3) Bovine serum albumin (BSA) is prepared as an organic material at a concentration four times the final concentration (5%). • (4) Virus fluid: the MGDG preparation or sodium hypochlorite and BSA are mixed at a ratio of 2 : 1 : 1. A sample prepared by adding PBS instead of the MGDG preparation or sodium hypochlorite was used as a control. • (5) After being left at room temperature for 1 minute, 10 minutes, and 60 minutes, 100-fold dilution with PBS is performed. The CRFK cells cultured in a monolayer fashion are added in an amount of 100 µl/culture dish to a 35 mm culture dish, and an infection treatment is performed at room temperature for 1 hour. • (6) A 1% SeaPlaque Agarose-added MEM culture medium is overlaid. • (7) After 2 days, the appeared plaque is immobilized and stained with a crystal violet solution. • (8) The number of plaques is counted under a microscope.

[2] = test system: Herpes simplex virus type 2 (HSV-2); assay: Virucidal activity of each MGDG fraction, herpes simplex virus type 2; settings: 50 µg/ml, 37°C, 60 minutes, Vero cell
Method: (1) A coccomyxa sp. KJ strain-derived MGDG preparation was subjected to HPLC, and each peak was separated, thereby obtaining five types of MGDG refined products (MGDG1, MGDG2, MGDG3, MGDG4, and MGDG5). Furthermore, the MGDG preparation before separation (containing MGDG1 to MGDG5) was prepared as a mix product. (2) Each sample was mixed with respect to each virus fluid (2×10^5 PFU/ml) so that the final concentration became 50 µg/ml, and the resultant product was left to stand still at 37°C for 60 minutes.
(3) The mixed liquid of (2) is diluted in the MEM culture medium without foetal bovine serum, a culture medium for plaque assay is then overlaid, and culturing is performed at 37°C for 2 to 3 days. (4) After checking appearance of plaques, the cells were immobilized and stained with a neutral red solution, and the number of plaques was measured under a microscope. The virus survival rate of each sample was calculated based on the appearance number of virus appearing in the case of not adding the sample (100%). The virucidal performance of each sample was evaluated from the virus survival rate.

[3] = test system: Influenza A virus (IFV); assay: Virucidal activity of each MGDG fraction, influenza virus; settings: 50 µg/ml, 37°C, 60 minutes; MDCK cell

Compound	inactivation effect in the presence of the organic material, change versus its absence ([1]; 5% BSA)	rate of virus inactivation ([1]; organic material (BSA) did not exist, one minute) [%]	virucidal (inactivation) activity (virus survival rate) [2]	virucidal (inactivation) activity (virus survival rate) ([2]; listed as fifth peak of the KJ strain MGDG preparation)	virucidal (inactivation) activity (virus survival rate) [3]
OCl [sodium hypochlorite]	significantly reduced	100			
monogalactosyldiacylglycerol in which a constituent fatty acid is C18:3 and C18:2 [MGDG5]			significant inactivation effect	high virucidal activity	significant inactivation effect; also recorded: high virucidal activity
